Patent US20140107109A1, “AMINO-DIHYDROTHIAZINE AND AMINO-DIOXIDO DIHYDROTHIAZINE COMPOUNDS AS BETA-SECRETASE ANTAGONISTS AND METHODS OF USE” (Amgen Inc., priority 2012, published 2014)
Read-outs that look alike come from different tables or passages of the source.

Tests used:
[1] = biological target: Beta Secretase enzyme (BACE1) (Homo sapiens, UniProt P56817); assay: In vitro enzymatic BACE FRET assay; format: biochemical; conditions: read-out: BACE1 FRET assay IC50
How it was run: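 Readout: dequenched fluorescence (ex 488 nm/[…]) after neutralizing with Tris buffer. Reactions, begun by adding 50 nM quenched peptide substrate spanning the BACE cleavage site, were incubated one hour at pH 4.2 in 0.05 M acetate with 100 uM genapol and 10% final DMSO.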

[2] = tested on: Aβ40 in conditioned medium of cells stably expressing Amyloid Precursor Protein (APP); assay: In vitro BACE cell-based assay (HEK cell assay), Aβ40 sandwich ELISA; conditions: Homo sapiens, HEK293
How it was run: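 Aβ40 in conditioned medium was quantified by time-resolved fluorescence sandwich ELISA (pAb40 capture 3 h at 4 °C, biotin-6E10 detection 2 h at 4 °C) after 24 h compound exposure of APP-expressing cells. Doses spanned 10 points from 100 μM or 10 μM top, 0.1% DMSO; IC50 was derived from percent of control.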

Cathepsin D (Cat D) = biological target: T1, Cathepsin D (Cat D) (Homo sapiens, UniProt P07339); assay: In vitro enzymatic Cathepsin D (Cat D) FRET assay; format: biochemical; conditions: read-out: CatD IC50
T1 construct: Recombinant Cat D was expressed in CHO cells; made in house; host or cells: CHO cells
T1 sequence (P07339 65-412, species assumed): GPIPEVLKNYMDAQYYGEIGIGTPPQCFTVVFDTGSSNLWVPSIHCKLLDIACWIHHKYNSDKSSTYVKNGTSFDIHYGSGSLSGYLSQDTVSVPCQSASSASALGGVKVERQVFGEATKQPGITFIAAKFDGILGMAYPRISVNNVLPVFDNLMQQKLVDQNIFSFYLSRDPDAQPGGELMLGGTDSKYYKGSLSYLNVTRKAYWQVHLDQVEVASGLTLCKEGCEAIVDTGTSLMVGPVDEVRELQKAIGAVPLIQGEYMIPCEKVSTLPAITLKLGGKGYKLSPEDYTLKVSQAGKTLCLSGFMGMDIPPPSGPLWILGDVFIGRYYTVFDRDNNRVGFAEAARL
How it was run: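 FRET read-out: a fluorophore/quencher-labelled peptide substrate is cleaved by 9 nM Cat D (recombinant, CHO-expressed) following a one-hour preincubation with inhibitor dilutions in DMSO. Tris buffer added to neutralize pH ends the reaction before fluorescence measurement.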

Chain of Beta Secretase enzyme (BACE1) (P56817 46-501): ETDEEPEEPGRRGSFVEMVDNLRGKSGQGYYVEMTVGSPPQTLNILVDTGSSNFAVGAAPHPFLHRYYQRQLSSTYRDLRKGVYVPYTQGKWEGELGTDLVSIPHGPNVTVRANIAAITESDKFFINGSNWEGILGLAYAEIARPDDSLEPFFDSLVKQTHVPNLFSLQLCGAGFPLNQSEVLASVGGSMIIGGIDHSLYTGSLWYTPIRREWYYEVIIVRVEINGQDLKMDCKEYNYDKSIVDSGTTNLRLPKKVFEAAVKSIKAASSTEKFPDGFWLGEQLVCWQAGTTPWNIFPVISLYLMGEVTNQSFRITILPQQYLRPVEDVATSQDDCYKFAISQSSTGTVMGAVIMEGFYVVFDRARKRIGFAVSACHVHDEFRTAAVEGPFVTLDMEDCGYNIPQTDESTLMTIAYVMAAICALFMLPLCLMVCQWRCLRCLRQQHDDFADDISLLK

Row | IC50 ([1]; average IC50, enzyme assay) [µM] | IC50 (Cathepsin D (Cat D)) [µM] | IC50 [1] [µM] | Structure (SMILES) | further results
1 | 0.00102 | 1370 | – | Cc1cc(C#N)cnc1C(=O)Nc1ccc(F)c([C@]2(C)CS(=O)(=O)[C@@](C)(F)C(N)=N2)c1 [Example 324, N-(3-((3R,6R)-5-amino-6-fluoro-3,6-dimethyl-1,1-dioxido-3,6-dihydro-2H-1,4-thiazin-3-yl)-4-fluorophenyl)-5-cyano-3-methyl-2-pyridinecarboxamide] | IC50 ([2]; average IC50, HEK cell assay): 0.0651 µM
2 | 3.25 | 73.5 | – | CC1(C)C(N)=N[C@](C)(c2cc(Sc3ccccn3)ccc2F)CS1(=O)=O [Example 163, (R)-5-amino-3-(2-fluoro-5-(pyridin-2-ylthio)phenyl)-3,6,6-trimethyl-3,6-dihydro-2H-1,4-thiazine 1,1-dioxide] | IC50 ([2]; average IC50, cell assay): 2.36 µM
3 | – | 47.6 | 0.0114 | COc1cnc2c(Nc3ccc(F)c([C@]4(C)CS(=O)(=O)C(C)(C)C(N)=N4)c3)cccc2n1 [Example 75, (R)-5-Amino-3-(2-fluoro-5-((2-methoxyquinoxalin-5-yl)amino)phenyl)-3,6,6-trimethyl-3,6-dihydro-2H-1,4-thiazine 1,1-dioxide] | IC50 ([2]; Aβ40, 24 h incubation): 0.212 µM
4 | – | 150 | 0.00457 | Cc1cc(C(F)F)cnc1C(=O)Nc1ccc(F)c([C@]2(C)CS(=O)(=O)C3(CCC3)C(N)=N2)c1 [Example 123, (R)—N-(3-(9-amino-7-methyl-5,5-dioxido-5-thia-8-azaspiro[3.5]non-8-en-7-yl)-4-fluorophenyl)-5-(difluoromethyl)-3-methylpicolinamide] | IC50 [2]: 0.0063 µM
5 | – | > 400 | 8.2 | COc1cnc(C(=O)Nc2ccc(F)c([C@]3(C)CS(=O)(=O)C(C)(C)C(N)=N3)n2)cn1 [Example 40, (R)—N-(6-(5-amino-3,6,6-trimethyl-1,1-dioxido-3,6-dihydro-2H-1,4-thiazin-3-yl)-5-fluoropyridin-2-yl)-5-methoxypyrazine-2-carboxamide] | IC50 ([2]; Aβ40, 24 h incubation): 6.98 µM
6 | 0.00203 | > 14.8 | – | CC1(C)C(N)=N[C@](CF)(c2cc(Nc3nccc4nc(C(F)(F)F)cnc34)ccc2F)CS1(=O)=O [Example 234, N-(3-((3S)-5-amino-3-(fluoromethyl)-6,6-dimethyl-1,1-dioxido-3,6-dihydro-2H-1,4-thiazin-3-yl)-4-fluorophenyl)-2-(trifluoromethyl)pyrido[3,4-b]pyrazin-5-amine] | IC50 ([2]; average IC50, cell assay): 0.105 µM
7 | – | 363 | 0.0006 | CC1(C)C(N)=N[C@](CF)(c2cc(NC(=O)c3ncc(Cl)cc3F)ccc2F)CS1(=O)=O [Example 409, N-(3-((3S)-5-amino-3-(fluoromethyl)-6,6-dimethyl-1,1-dioxido-3,6-dihydro-2H-1,4-thiazin-3-yl)-4-fluorophenyl)-5-chloro-3-fluoro-2-pyridinecarboxamide] | IC50 [2]: 0.0037 µM
8 | 0.00259 | 280 | – | COc1cnc2c(Nc3cnc(F)c([C@]4(C)CS(=O)(=O)C(C)(C)C(N)=N4)c3)nccc2n1 [Example 222, N-(5-((3R)-5-amino-3,6,6-trimethyl-1,1-dioxido-3,6-dihydro-2H-1,4-thiazin-3-yl)-6-fluoro-3-pyridinyl)-2-methoxypyrido[3,4-b]pyrazin-5-amine] | IC50 ([2]; average IC50, cell assay): 0.0036 µM
9 | 0.00642 | 139 | – | Cc1cc(OC(F)F)cnc1C(=O)Nc1cnc(F)c([C@]2(C)CS(=O)(=O)C3(CCC3)C(N)=N2)c1 [Example 358, N-(5-((7R)-9-amino-7-methyl-5,5-dioxido-5-thia-8-azaspiro[3.5]non-8-en-7-yl)-6-fluoro-3-pyridinyl)-5-(difluoromethoxy)-3-methyl-2-pyridinecarboxamide] | IC50 ([2]; average IC50, HEK cell assay): 0.0095 µM
10 | 0.0212 | 113 | – | COc1cnc2c(Nc3ccc(F)c([C@@]4(C)N=C(N)C(C)(C)S(=O)(=O)C45CC5)c3)nccc2n1 [Example 250, N-(3-((8R)-6-amino-5,5,8-trimethyl-4,4-dioxido-4-thia-7-azaspiro[2.5]oct-6-en-8-yl)-4-fluorophenyl)-2-methoxypyrido[3,4-b]pyrazin-5-amine] | IC50 ([2]; average IC50, cell assay): 0.059 µM
11 | 0.00415 | 390 | – | COc1cnc2c(Nc3ccc(F)c([C@]4(CF)CS(=O)(=O)C5(CCC5)C(N)=N4)c3)nccc2c1 [Example 239, N-(3-((7S)-9-amino-7-(fluoromethyl)-5,5-dioxido-5-thia-8-azaspiro[3.5]non-8-en-7-yl)-4-fluorophenyl)-3-methoxy-1,7-naphthyridin-8-amine] | IC50 ([2]; average IC50, cell assay): 0.0237 µM
12 | – | 31.1 | – | C[C@]1(c2cc(NC(=O)c3ccc(Cl)cn3)ccc2F)N=C(N)C2(CC2)S(=O)(=O)[C@H]1F [Example 201, N-(3-((5R,6R)-8-amino-5-fluoro-6-methyl-4,4-dioxido-4-thia-7-azaspiro[2.5]oct-7-en-6-yl)-4-fluorophenyl)-5-chloro-2-pyridinecarboxamide] | IC50 ([1]; average IC50): 0.00062 µM; IC50 ([2]; average IC50, HEK cells): 0.002 µM
13 | 0.0008 | > 400 | – | C[C@]1(F)C(N)=N[C@](C)(c2cc(NC(=O)c3ncc(Cl)cc3F)ccc2F)CS1(=O)=O [Example 320, N-(3-((3R,6R)-5-amino-6-fluoro-3,6-dimethyl-1,1-dioxido-3,6-dihydro-2H-1,4-thiazin-3-yl)-4-fluorophenyl)-5-chloro-3-fluoro-2-pyridinecarboxamide] | IC50 ([2]; average IC50, HEK cell assay): 0.0789 µM
14 | – | 136 | 0.0004 | Cc1cc(Cl)cnc1C(=O)Nc1ccc(F)c([C@]2(CF)CS(=O)(=O)C(C)(C)C(N)=N2)c1 [Example 408, N-(3-((3S)-5-amino-3-(fluoromethyl)-6,6-dimethyl-1,1-dioxido-3,6-dihydro-2H-1,4-thiazin-3-yl)-4-fluorophenyl)-5-chloro-3-methyl-2-pyridinecarboxamide] | IC50 [2]: 0.0232 µM
15 | 0.00652 | 708 | – | Cc1cc(Cl)ccc1C(=O)Nc1ccc(F)c([C@]2(C)CS(=O)(=O)C(C)(C)C(N)=N2)c1 [Example 353, N-(3-((3R)-5-amino-3,6,6-trimethyl-1,1-dioxido-3,6-dihydro-2H-1,4-thiazin-3-yl)-4-fluorophenyl)-4-chloro-2-methylbenzamide] | IC50 ([2]; average IC50, HEK cell assay): 0.0166 µM
16 | – | > 44.4 | – | C[C@]1(F)C(N)=N[C@](C)(c2cc(Nc3ncc(F)c4cc(C#N)cnc34)ccc2F)CS1(=O)=O [Example 179, 8-((3-((3R,6R)-5-Amino-6-fluoro-3,6-dimethyl-1,1-dioxido-3,6-dihydro-2H-1,4-thiazin-3-yl)-4-fluorophenyl)amino)-5-fluoro-1,7-naphthyridine-3-carbonitrile] | IC50 ([1]; average IC50): 0.0008 µM; IC50 ([2]; average IC50, HEK cells): 0.157 µM
17 | – | 193 | 0.0027 | CC1(C)C(N)=N[C@](C)(c2cc(NC(=O)c3ccc(C(F)F)cn3)ccc2F)CS1(=O)=O [Example 20, N-(3-((3R)-5-amino-3,6,6-trimethyl-1,1-dioxido-3,6-dihydro-2H-1,4-thiazin-3-yl)-4-fluorophenyl)-5-(difluoromethyl)-2-pyridinecarboxamide] | IC50 ([2]; Aβ40, 24 h incubation): 0.0039 µM
18 | – | 183 | 0.002 | CC1(C)C(N)=N[C@](C)(c2cc(NC(=O)c3ccc(Cl)cn3)cnc2F)CS1(=O)=O [Example 398, N-(5-((3R)-5-amino-3,6,6-trimethyl-1,1-dioxido-3,6-dihydro-2H-1,4-thiazin-3-yl)-6-fluoro-3-pyridinyl)-5-chloro-2-pyridinecarboxamide] | IC50 [2]: 0.0114 µM
19 | 0.00313 | 233 | – | COc1cnc(C(=O)Nc2ccc(F)c([C@@]3(C)N=C(N)C(C)(C)S(=O)(=O)C3F)c2)c(C)c1 (stereo partly drawn) [Example 337, N-(3-((3R)-5-amino-2-fluoro-3,6,6-trimethyl-1,1-dioxido-3,6-dihydro-2H-1,4-thiazin-3-yl)-4-fluorophenyl)-5-methoxy-3-methyl-2-pyridinecarboxamide] | IC50 ([2]; average IC50, HEK cell assay): 0.0097 µM
20 | 0.00074 | > 400 | – | C[C@]1(F)C(N)=N[C@](C)(c2cc(NC(=O)c3ncc(C#N)cc3Cl)ccc2F)CS1(=O)=O [Example 327, N-(3-((3R,6R)-5-amino-6-fluoro-3,6-dimethyl-1,1-dioxido-3,6-dihydro-2H-1,4-thiazin-3-yl)-4-fluorophenyl)-3-chloro-5-cyano-2-pyridinecarboxamide] | IC50 ([2]; average IC50, HEK cell assay): 0.0204 µM

Row | Structure (SMILES) | IC50 ([1]; average IC50, enzyme assay) [µM] | IC50 (Cathepsin D (Cat D)) [µM] | IC50 [1] [µM] | further results
21 | CC1(C)C(N)=N[C@@](C)(c2cc(NC(=O)c3ccc(Cl)cn3)cc(F)c2F)CS1(=O)=O [Example 39, (S)—N-(3-(5-amino-3,6,6-trimethyl-1,1-dioxido-3,6-dihydro-2H-1,4-thiazin-3-yl)-4,5-difluorophenyl)-5-chloropicolinamide] | – | 225 | 1.18 | IC50 ([2]; Aβ40, 24 h incubation): 3.27 µM
22 | CC1(C)C(N)=N[C@](C)(c2cc(NC(=O)c3ccc(Cl)cc3F)ccc2F)CS1(=O)=O [Example 213, N-(3-((3R)-5-amino-3,6,6-trimethyl-1,1-dioxido-3,6-dihydro-2H-1,4-thiazin-3-yl)-4-fluorophenyl)-4-chloro-2-fluorobenzamide] | 0.0123 | 442 | – | IC50 ([2]; average IC50, cell assay): 0.029 µM
